Assay results published in patent US20070117861A1, “Treatment or prevention of cardiovascular and respiratory disorders with novel substituted cyclic-amp specific phosphodiesterase inhibitors” (University of South Carolina, priority 2003, published 2007).
pIC50: −log10 of the molar value.

Columns and labels:
[1] = system: high K+ contracted porcine kidney main artery; experiment: tension assay, high K+ contracted porcine kidney vessel rings; details: tension assay trace, FIG. 5
Description: The trachea, main bronchi and vessel rings (2-3 mm in width) of Sprague-Dawley rats, Harley Guinea Pigs and porchine were used to carry out the tension assay. The tissue rings were bathed in 3.5 ml or 30 ml tissue chamber and aired with 95% O2/5% CO2 at 37° C. The tension was measured using a tension transducer linked to a PowerLab system (ADInstruments, USA). The basal tension was set to 0.7-1.0 g step by step with a 0.1-0.2 g increment. After the base tension reached steady-state in control K-H solution, the rings were contracted for 5-10 minutes by a 70 mM high K^+ K-H solution and relaxed by switching back to normal K-H solution. The alternation between 70 mM K^+ K-H and normal K-H was repeated two more times to equilibrate the tissue before the experiment.

[2] = onset of therapeutic effect after administration; assay type: in vivo
[3] = blood pressure and heart rate in anesthetized rats after oral gavage; assay type: in vivo; details: anesthetized female rat; for Mean Blood Pressure: saline control 186; for Heart Rate: saline control 364
Description: This example illustrates the effect that MS23 has on blood pressure reduction through an in vivo experiment. Specifically, this example illustrates the effect of an intravenous bolus injection of MS23 on blood pressure. Female Sprague-Dawley rats weighing 200-225 g were anesthetized with pentobarbital (30 mg/kg body weight (bw), i.p.). The animals were positioned supinely on a heat plate that was controlled by an automatic temperature controller system (TC-324B, Warner Instrument Corp.) to maintain its body temperature constant (36° ±0.5° C.) during the experiment. The trachea, right carotid artery, and left femoral vein were exposed. The trachea was cannulated and the animal was breathed with air through a respirator at a rate of 65-70/min and an inspiration pressure of approximately 10 cm H2O. PE catheters were implanted into the carotid artery and femoral vein, respectively. The animal was heparinized by i.v. injection of approximately 300 units of heparin dissolved in 0.3 ml of 0.9% saline. Arterial pressure was recorded from the carotid artery catheter connected to a physiological pressure transducer (SP 844, Capto Company, Norway) that was coupled to a bridge amplifier (PowerLab, ADInstruments). The data was digitized through a 16 SP interface and acquire on-line with Chart 4.0 software (PowerLab, ADInstruments) and stored to a personal computer.
MS23 was administered to two female rats via oral gavage at a dose of 26 and 80 mg/kg.bw, respectively. The agent was dissolved in 0.9% saline in a volume of 0.5 ml. The same volume of saline alone was administered to two control animals. After 15 minutes, the animal was anesthetized with pentobarbital (30 mg/kg.bw, i.p.) and same surgery was performed except that the femoral vein was not exposed and there was no i.v. administration of the test agent. The carotid blood pressure and heart rate were monitored and recorded for 60 minutes using the same method described above. The initial recording was made within 45 to 65 minutes after performing oral gavage. The results are reported in the following Table 1 (the MBP and HR were measured within 30 minutes after the surgery).

[4] = system: guinea pig ventricular myocytes; experiment: action potentials, nystatin-perforated whole-cell patch-clamp, ventricular myocytes; assay type: cell-based
Description: (§1) The effects of a novel synthesized cAMP specific phosphodiesterase inhibitor MS23 on action potential parameters were examined and compared with those of milrinone and rolipram in isolated guinea-pig myocytes. Action potentials (AP) were recorded under nystatin-perforated whole-cell patch-clamp mode at a temperature of 35±0.5° C. […] In comparison, rolipram (30 μM) shortened APD90 from 318.3±8.9 to 274.6±9.8 msec (P<0.05, n=3) in ventricular cells. […] In contrast, milrinone (10 μM) elongated ventricular APD90 from 287.9±10.3 msec to 327.8±17.4 msec (P<0.05, n=4) and produced a significant delay of phase 1 and plateau phase, but acceleration of phase 3 repolarization (APD90 shortened from 153.9±12.1 to 135.5±12.3 msec, P<0.05, n=4) in atrial cells.
(§2) Single myocytes were isolated by enzymatic digestion of guinea pig hearts. The animal was anesthetized by I.P. injection of pentobarbital sodium (50 mg/kg) and the heart was excised and retrogradely perfused with oxygenated Tyrode solution containing (in […]): 140 NaCl, 5.4 KCl, 1.5 MgCl2, 1.8 CaCl2, 0.33 NaH2PO4, 5.5 Glucose, 19 Hepes (pH 7.4 with NaOH at 36.5° C.). The enzymatic digestion was carried out with Ca^2+-free Tyrode solution by adding 0.4 mg/ml of collagenase type II (306 units/mg) and 1.6 mg/ml Bovine Serum Albumin V.
(§3) Transmembrane potentials were recorded under nystatin-perforted whole-cell current-clamp mode at 36.5° C. when the cells were bathed in Tyrode solution. The finished pipette had resistance of 4-7 MΩ when filled with a perforate solution containing (in mM): 140 KCl, 2 MCl2, 0.5 CaCl2, 10 Glucose, 10 Hepes (pH 7.2 with KOH), and 8.64 nM nystatin. The correction of junction potential was carried out off-line. The data acquisition was performed with an Axonpatch-200B amplifier/Digidata 1322A/Clampex 8.2 system (Axon Instrument, Inc., USA). Action potential was evoked by consecutive 10 msec rectangular current pulses at an interval of 2 seconds. APD was measured at 90% of repolarization (APD^90). The cell was held at a −40 mV membrane potential to inactivate the sodium channels. L-type calcium current was elicited by a step pulse from −40 mV to 0 mV with a duration of 300 msec.

[5] = system: guinea pig atrial myocytes; experiment: action potentials, nystatin-perforated whole-cell patch-clamp, atrial myocytes; assay type: cell-based
Description: as §1, §2, §3

[6] = solubility; assay type: physicochemical
[7] = blood pressure in anesthetized dogs after intravenous bolus injection; assay type: in vivo; details: for Left Ventricular End Diastolic Pressure: control 8.7; for Blood Pressure Min: control 46.6; for Blood Pressure Mean: control 67.2; for Left Ventricular Systolic Pressure: control 78.5; for Blood Pressure Max: control 99.8; for Heart Rate: control 119.8, in bpm (unit assumed)
Description: This example illustrates the effect that MS23 has on blood pressure reduction through an in vivo experiment in dogs. An intravenous bolus injection of MS23 was administered to anesthetized dogs at a dose of 0.25 mg/kg.bw. […] Higher doses of MS23 produced a greater decrease in blood pressure without affecting heart rate and left ventricular end diastolic pressure.

[8] = system: PDE1; details: reported in Hatzelmann et al. 2001; read-out: IC50 for roflumilast activity on PDE1; cited from earlier work
[9] = system: T1, PDE-4; details: reported in Hatzelmann et al. 2001; read-out: IC50 for roflumilast activity on PDE-4; cited from earlier work
T1 construct: other: reported in Hatzelmann et al. 2001

[10] = target: PDE5 (Homo sapiens, UniProt O76074); details: ratio of cited IC50 values
Description: PDE inhibition is then determined by the presence or absence of substrate degradation products. […] The relative ability of an inhibitory compound to slow or prevent the degradation of tritiated cyclic nucleotides is one test that is indicative of how well the compound in question selects one or more of each isoform to inhibit.

CCN(CC)CC(=O)Nc1c(C)cccc1C [Lidocaine]
effect on tension of high K+ contracted porcine kidney main artery [1]: did not relax

CCCN(CC)C(C)C(=O)Nc1[nH]c(CCSC)c(C)c1C(N)=O (stereo not shown) [MS23]
onset of therapeutic effect (response occurs) ([2]; after intraperitoneal administration): < 3 min | onset of therapeutic effect (response occurs) ([2]; after oral gavage): ≤ 30 min | Mean Blood Pressure ([3]; oral gavage 26 mg/kg·bw): 156 mm Hg | Heart Rate ([3]; oral gavage 26 mg/kg·bw): 384 beat/min | Mean Blood Pressure ([3]; oral gavage 80 mg/kg·bw): 126 mm Hg | Heart Rate ([3]; oral gavage 80 mg/kg·bw): 300 beat/min | prolongation of ventricular APD ([4]; from 1 to 100 μM): did not prolong | APD90 (action potential duration at 90% of repolarization) ([4]; ventricular cells, 30 μM, before drug 304.9±24.0 msec, P<0.05, n=8): 254.9 ± 28.4 ms | effect on APD ([5]; atrial cells, 30 μM): no effect | prolongation of atrial APD ([5]; from 1 to 100 μM): did not prolong | solubility in physiological saline [6]: soluble | Left Ventricular End Diastolic Pressure ([7]; Bolus 1 mg/kg·bw): 9.0 | Blood Pressure Min ([7]; Bolus 1 mg/kg·bw): 39.8 | Blood Pressure Mean ([7]; Bolus 1 mg/kg·bw): 58.4 | Left Ventricular Systolic Pressure ([7]; Bolus 1 mg/kg·bw): 71.8 | Blood Pressure Max ([7]; Bolus 1 mg/kg·bw): 90.5 mmHg | Heart Rate ([7]; Bolus 1 mg/kg·bw): 118.2 | Left Ventricular End Diastolic Pressure ([7]; Bolus 2 mg/kg·bw): 9.2 | Blood Pressure Min ([7]; Bolus 2 mg/kg·bw): 33.7 | Blood Pressure Mean ([7]; Bolus 2 mg/kg·bw): 48.0 | Left Ventricular Systolic Pressure ([7]; Bolus 2 mg/kg·bw): 63.1 | Blood Pressure Max ([7]; Bolus 2 mg/kg·bw): 76.8 mmHg | Heart Rate ([7]; Bolus 2 mg/kg·bw): 109.7 | reduction in blood pressure ([7]; intravenous bolus 0.25 mg/kg.bw): 4 mmHg

NC[C@H](O)c1ccc(O)c(O)c1 [Norepinephrine]
effect on tension of high K+ contracted porcine kidney main artery [1]: contracted

Cc1[nH]c(=O)c(C#N)cc1-c1ccncc1 [milrinone]
effect on APD90 ([4]; ventricular cells, 10 μM, after treatment with either rolipram or MS23): markedly shortened | APD90 ([4]; ventricular cells, 10 μM, before drug 287.9±10.3 msec, P<0.05, n=4): 327.8 ± 17.4 ms | APD90 ([5]; atrial cells, 10 μM, before drug 153.9±12.1 msec, P<0.05, n=4): 135.5 ± 12.3 ms

O=C(Nc1c(Cl)cncc1Cl)c1ccc(OC(F)F)c(OCC2CC2)c1 [roflumilast]
pIC50 [8]: < 5.00 | pIC50 [9]: 9.10 | selectivity for PDE-4 as compared with PDE5 (PDE5 IC50/PDE-4 IC50) [10]: at least 10,000

COc1ccc(C2CNC(=O)C2)cc1OC1CCCC1 (stereo not shown) [rolipram, reference compound]
APD90 ([4]; ventricular cells, 30 μM, before drug 318.3±8.9 msec, P<0.05, n=3): 274.6 ± 9.8 ms | effect on action potential phases ([5]; atrial cells, 30 μM): small delay of phase 1 and plateau phase, but acceleration of phase 3 repolarization
